Earlier results, collected in US20120263660A1, “Hair Loss Treatment” (POP TEST CORTISOL LLC, priority 2011, published 2012).

Tests used:
[1] = disclosed in U.S. Pat. No. 6,011,025
[2] = all phase I and phase II clinical trials already performed
[3] = molecular target: T1, glucocorticoid receptor [GR] (Homo sapiens, UniProt P04150); settings: disclosed in U.S. Pat. No. 6,011,025
T1 sequence (P04150 1-777): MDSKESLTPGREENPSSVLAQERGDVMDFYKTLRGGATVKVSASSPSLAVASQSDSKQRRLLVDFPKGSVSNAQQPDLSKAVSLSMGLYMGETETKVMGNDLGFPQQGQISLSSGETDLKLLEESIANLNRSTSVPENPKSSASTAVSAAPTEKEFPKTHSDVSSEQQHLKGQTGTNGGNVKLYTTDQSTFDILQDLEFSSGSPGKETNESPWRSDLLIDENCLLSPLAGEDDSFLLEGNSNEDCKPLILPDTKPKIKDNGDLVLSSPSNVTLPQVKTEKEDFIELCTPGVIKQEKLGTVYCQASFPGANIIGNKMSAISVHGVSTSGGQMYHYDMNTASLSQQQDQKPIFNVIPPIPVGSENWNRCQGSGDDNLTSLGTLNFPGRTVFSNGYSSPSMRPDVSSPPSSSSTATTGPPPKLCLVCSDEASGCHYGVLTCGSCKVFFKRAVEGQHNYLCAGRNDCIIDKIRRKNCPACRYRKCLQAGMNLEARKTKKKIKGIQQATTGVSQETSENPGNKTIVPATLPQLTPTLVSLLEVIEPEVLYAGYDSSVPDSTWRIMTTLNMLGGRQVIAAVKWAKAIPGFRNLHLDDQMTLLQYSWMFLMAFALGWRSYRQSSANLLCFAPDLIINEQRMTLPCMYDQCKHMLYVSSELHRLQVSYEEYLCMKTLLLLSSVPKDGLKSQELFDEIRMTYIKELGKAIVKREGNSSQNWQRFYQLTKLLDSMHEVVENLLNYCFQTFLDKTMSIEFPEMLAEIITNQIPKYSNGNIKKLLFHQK

[4] = molecular target: T2, progesterone receptor (Homo sapiens, UniProt P06401); settings: specificity for GR blockade
T2 sequence (P06401 1-933): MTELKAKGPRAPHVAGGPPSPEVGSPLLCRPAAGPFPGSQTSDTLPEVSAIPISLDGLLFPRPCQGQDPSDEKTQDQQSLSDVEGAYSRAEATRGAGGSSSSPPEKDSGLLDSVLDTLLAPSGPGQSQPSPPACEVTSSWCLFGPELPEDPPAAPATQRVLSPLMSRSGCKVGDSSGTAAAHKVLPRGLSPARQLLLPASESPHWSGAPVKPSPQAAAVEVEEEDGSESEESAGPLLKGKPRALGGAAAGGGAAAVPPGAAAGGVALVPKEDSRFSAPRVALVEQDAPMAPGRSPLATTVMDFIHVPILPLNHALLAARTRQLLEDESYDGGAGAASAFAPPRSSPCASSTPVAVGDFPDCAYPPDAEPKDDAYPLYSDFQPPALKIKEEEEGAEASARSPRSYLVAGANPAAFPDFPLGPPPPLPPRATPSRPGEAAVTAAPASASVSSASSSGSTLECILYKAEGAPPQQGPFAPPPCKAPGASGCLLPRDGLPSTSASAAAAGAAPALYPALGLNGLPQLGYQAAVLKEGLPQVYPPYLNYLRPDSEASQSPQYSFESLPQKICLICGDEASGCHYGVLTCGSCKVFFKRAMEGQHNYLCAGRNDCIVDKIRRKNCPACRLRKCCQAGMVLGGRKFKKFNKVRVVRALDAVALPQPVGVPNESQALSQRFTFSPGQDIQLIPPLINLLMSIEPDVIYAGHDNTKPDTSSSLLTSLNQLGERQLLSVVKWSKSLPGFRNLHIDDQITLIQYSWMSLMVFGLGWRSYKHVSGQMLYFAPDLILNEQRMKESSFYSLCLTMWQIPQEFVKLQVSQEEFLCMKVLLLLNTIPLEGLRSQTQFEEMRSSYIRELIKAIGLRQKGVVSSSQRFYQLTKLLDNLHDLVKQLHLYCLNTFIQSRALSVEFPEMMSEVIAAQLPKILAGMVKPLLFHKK

[5] = disclosed in U.S. Pat. No. 6,011,025; remark: listed apart in the source
[6] = system: estrogen receptor; settings: specificity for GR blockade

GR binding affinity [3]: high | cross-binding to progesterone receptor [4]: without significant cross-binding | cross-binding to estrogen receptor [6]: without significant cross-binding
SMILES: CC#C[C@]1(O)CC[C@H]2[C@@H]3CCC4=CC(=O)CCC4=C3[C@@H](c3ccc4c(c3)OCO4)C[C@@]21C [ORG 34517]
androgenic activity [1]: low | significant toxicities and side effects [2]: none were identified | progestagenic activity [5]: low
